Assay results: US9307766B2, “Isoxazoline derivatives as insecticidal compounds” (Syngenta Participations AG, priority 2011, dated 2016)

Assays:
Format in all cases: in vivo
[1] = tested on: Tetranychus urticae; test: Tetranychus urticae (two-spotted spider mite) leaf disc spray test; conditions: foliar, 192 h, 200 ppm sprayed on bean leaf discs, mite populations of mixed ages, egg, larval and adult mortality 8 days later
Excerpt: Tetranychus urticae (Two-Spotted Spider Mite):
Bean leaf discs on agar in 24-well microtiter plates were sprayed with test solutions at an application rate of 200 ppm. After drying, the leaf discs are infested with mite populations of mixed ages. 8 days later, discs are checked for egg mortality, larval mortality, and adult mortality.

[2] = tested on: Spodoptera littoralis; test: Spodoptera littoralis (Egyptian cotton leafworm) leaf disc spray test; conditions: foliar, 72 h, 200 ppm sprayed on cotton leaf discs, L1 larvae, mortality, feeding behavior, growth regulation 3 days after treatment
Excerpt: Spodoptera littoralis (Egyptian Cotton Leafworm):
Cotton leaf discs were placed on agar in a 24-well microtiter plate and sprayed with test solutions at an application rate of 200 ppm. After drying, the leaf discs were infested with 5 L1 larvae. The samples were checked for mortality, feeding behavior, and growth regulation 3 days after treatment (DAT).

[3] = tested on: Heliothis virescens; test: Heliothis virescens (tobacco budworm) egg test on artificial diet; conditions: 96 h, 200 ppm (concentration in well 18 ppm) by pipetting, eggs 0-24 h old on artificial diet, egg mortality, larval mortality, growth regulation after 4 days
Protocol: Heliothis virescens (Tobacco Budworm):
Eggs (0-24 h old) were placed in 24-well microtiter plate on artificial diet and treated with test solutions at an application rate of 200 ppm (concentration in well 18 ppm) by pipetting. After an incubation period of 4 days, samples were checked for egg mortality, larval mortality, and growth regulation.

[4] = tested on: Thrips tabaci; test: Thrips tabaci (onion thrips) leaf disc spray test; conditions: foliar, 168 h, 200 ppm sprayed on sunflower leaf discs, thrip population of mixed ages, mortality after 7 days
Protocol: Thrips tabaci (Onion Thrips):
Sunflower leaf discs were placed on agar in a 24-well microtiter plate and sprayed with test solutions at an application rate of 200 ppm. After drying, the leaf discs were infested with a thrip population of mixed ages. After an incubation period of 7 days, samples were checked for mortality.

[5] = tested on: Diabrotica balteata; test: Diabrotica balteata (corn root worm) artificial diet test; conditions: 120 h, 200 ppm (concentration in well 18 ppm) on artificial diet, L2 larvae, larval mortality and growth regulation after 5 days
Protocol: Diabrotica balteata (Corn Root Worm):
(§1) A 24-well microtiter plate (MTP) with artificial diet was treated with test solutions at an application rate of 200 ppm (concentration in well 18 ppm) by pipetting. After drying, the MTP's were infested with L2 larvae (6-10 per well). After an incubation period of 5 days, samples were checked for larval mortality and growth regulation.

[6] = tested on: Plutella xylostella; test: Plutella xylostella (diamond back moth) artificial diet test; conditions: 144 h, 200 ppm (concentration in well 18 ppm) on artificial diet, L2 larvae, larval mortality and growth regulation after 6 days
Protocol: Plutella xylostella (Diamond Back Moth):
as §1, with “24-well” for “A 24-well”, “(7-12” for “(6-10”, “6” for “5”

Measured: pest or weed control at 200 ppm

O=C(NC1CS(=O)(=O)C1)c1ccc(C2=NOC(c3cc(Cl)cc(Cl)c3)(C(F)(F)F)C2Br)c2ccccc12 (stereo not drawn) [Compound D01, 4-[4-bromo-5-(3,5-dichlorophenyl)-5-(trifluoromethyl)-4H-isoxazol-3-yl]-N-(1,1-dioxothietan-3-yl)naphthalene-1-carboxamide]
≥ 80%: all assays above

CC1(NC(=O)c2ccc(C3=NOC(c4cc(Cl)cc(Cl)c4)(C(F)(F)F)C3Br)c3ccccc23)CSC1 (stereo not drawn) [Compound D02, 4-[4-bromo-5-(3,5-dichlorophenyl)-5-(trifluoromethyl)-4H-isoxazol-3-yl]-N-(3-methylthietan-3-yl)naphthalene-1-carboxamide]
≥ 80%: all assays above

O=C(NC1C[S+]([O-])C1)c1ccc(C2=NOC(c3cc(Cl)cc(Cl)c3)(C(F)(F)F)C2Br)c2ccccc12 (stereo not drawn) [Compound D03, 4-[4-bromo-5-(3,5-dichlorophenyl)-5-(trifluoromethyl)-4H-isoxazol-3-yl]-N-(1-oxothietan-3-yl)naphthalene-1-carboxamide]
≥ 80%: all assays above

O=C(NC1CSC1)c1ccc(C2=NOC(c3cc(Cl)cc(Cl)c3)(C(F)(F)F)C2Br)c2ccccc12 (stereo not drawn) [Compound D04, 4-[4-bromo-5-(3,5-dichlorophenyl)-5-(trifluoromethyl)-4H-isoxazol-3-yl]-N-(thietan-3-yl)naphthalene-1-carboxamide]
≥ 80%: all assays above

O=C(CNC(=O)c1ccc(C2=NOC(c3cc(Cl)cc(Cl)c3)(C(F)(F)F)C2)c2ccccc12)NC1CS(=O)(=O)C1 (stereo not drawn) [Compound D05, 4-[5-(3,5-dichlorophenyl)-5-(trifluoromethyl)-4H-isoxazol-3-yl]-N-[2-[(1,1-dioxothietan-3-yl)amino]-2-oxo-ethyl]naphthalene-1-carboxamide]
≥ 80%: all assays above

CC1(NC(=O)CNC(=O)c2ccc(C3=NOC(c4cc(Cl)cc(Cl)c4)(C(F)(F)F)C3)c3ccccc23)CSC1 (stereo not drawn) [Compound D06, 4-[5-(3,5-dichlorophenyl)-5-(trifluoromethyl)-4H-isoxazol-3-yl]-N-[2-[(3-methylthietan-3-yl)amino]-2-oxo-ethyl]naphthalene-1-carboxamide]
≥ 80%: all assays above

O=C(CNC(=O)c1ccc(C2=NOC(c3cc(Cl)cc(Cl)c3)(C(F)(F)F)C2)c2ccccc12)NC1C[S+]([O-])C1 (stereo not drawn) [Compound D07, 4-[5-(3,5-dichlorophenyl)-5-(trifluoromethyl)-4H-isoxazol-3-yl]-N-[2-oxo-2-[(1-oxothietan-3-yl)amino]ethyl]naphthalene-1-carboxamide]
≥ 80%: [1] | [2] | [4] | [6]

O=C(CNC(=O)c1ccc(C2=NOC(c3cc(Cl)cc(Cl)c3)(C(F)(F)F)C2)c2ccccc12)NC1CSC1 (stereo not drawn) [Compound D08, 4-[5-(3,5-dichlorophenyl)-5-(trifluoromethyl)-4H-isoxazol-3-yl]-N-[2-oxo-2-(thietan-3-ylamino)ethyl]naphthalene-1-carboxamide]
not listed: [3]
≥ 80%: all other assays above

O=C(NC1CS(=O)(=O)C1)c1ccc(C2=NOC(c3cc(Cl)cc(Cl)c3)(C(F)(F)F)C2)c2ncccc12 (stereo not drawn) [Compound D09, 8-[5-(3,5-dichlorophenyl)-5-(trifluoromethyl)-4H-isoxazol-3-yl]-N-(1,1-dioxothietan-3-yl)quinoline-5-carboxamide]
≥ 80%: [2] | [6]

O=C(NC1CSC1)c1ccc(C2=NOC(c3cc(Cl)cc(Cl)c3)(C(F)(F)F)C2)c2ncccc12 (stereo not drawn) [Compound D10, 8-[5-(3,5-dichlorophenyl)-5-(trifluoromethyl)-4H-isoxazol-3-yl]-N-(thietan-3-yl)quinoline-5-carboxamide]
≥ 80%: [2] | [3] | [5] | [6]

O=C(NC1C[S+]([O-])C1)c1ccc(C2=NOC(c3cc(Cl)cc(Cl)c3)(C(F)(F)F)C2)c2ncccc12 (stereo not drawn) [Compound D11, 8-[5-(3,5-dichlorophenyl)-5-(trifluoromethyl)-4H-isoxazol-3-yl]-N-(1-oxothietan-3-yl)quinoline-5-carboxamide]
≥ 80%: [2] | [3] | [6]

O=C(NC1CSC1)c1ccc(C2=NOC(c3cc(Cl)cc(Cl)c3)(C(F)(F)F)C2)c2cccnc12 (stereo not drawn) [Compound D12, 5-[5-(3,5-dichlorophenyl)-5-(trifluoromethyl)-4H-isoxazol-3-yl]-N-(thietan-3-yl)quinoline-8-carboxamide]
≥ 80%: all assays above

O=C(NC1CS(=O)(=O)C1)c1cnc(C2=NOC(c3cc(Cl)cc(Cl)c3)(C(F)(F)F)C2)c2ccccc12 (stereo not drawn) [Compound D13, 1-[5-(3,5-dichlorophenyl)-5-(trifluoromethyl)-4H-isoxazol-3-yl]-N-(1,1-dioxothietan-3-yl)isoquinoline-4-carboxamide]
≥ 80%: [2] | [3] | [5] | [6]

CC1(NC(=O)c2cnc(C3=NOC(c4cc(Cl)cc(Cl)c4)(C(F)(F)F)C3)c3ccccc23)CSC1 (stereo not drawn) [Compound D14, 1-[5-(3,5-dichlorophenyl)-5-(trifluoromethyl)-4H-isoxazol-3-yl]-N-(3-methylthietan-3-yl)isoquinoline-4-carboxamide]
not listed: [2]
≥ 80%: all other assays above

O=C(NC1CSC1)c1cnc(C2=NOC(c3cc(Cl)cc(Cl)c3)(C(F)(F)F)C2)c2ccccc12 (stereo not drawn) [Compound D15, 1-[5-(3,5-dichlorophenyl)-5-(trifluoromethyl)-4H-isoxazol-3-yl]-N-(thietan-3-yl)isoquinoline-4-carboxamide]
≥ 80%: all assays above

O=C(NC1C[S+]([O-])C1)c1cnc(C2=NOC(c3cc(Cl)cc(Cl)c3)(C(F)(F)F)C2)c2ccccc12 (stereo not drawn) [Compound D16, 1-[5-(3,5-dichlorophenyl)-5-(trifluoromethyl)-4H-isoxazol-3-yl]-N-(1-oxothietan-3-yl)isoquinoline-4-carboxamide]
≥ 80%: all assays above
